In patent US3997403A, “Antibiotic G-418 and the production thereof” (Schering Corporation, priority 1975, dated 1976):
In brackets after ≈: the same amount, converted by molar mass.

Columns and labels:
[1] = test system: Streptococcus sp. 16245; experiment: In Vitro Antibacterial Activity (Table V); assay type: cell-based; conditions: Mueller-Hinton Broth pH 7.2 - 7.5
From the text: (§1) In Table IV and Table V are set forth the in vitro antibacterial spectrum of Antibiotic G-418 against a variety of gram-positive and gram-negative bacteria using standard art recognized methods.
(§2) *Mueller -- Hinton Broth pH 7.2 - 7.5

[2] = test system: Streptococcus sp. 27; experiment: In Vitro Antibacterial Activity (Table V); assay type: cell-based; conditions: Mueller-Hinton Broth pH 7.2 - 7.5
From the text: as §1, §2

[3] = test system: Streptococcus sp. 3045; experiment: In Vitro Antibacterial Activity (Table V); assay type: cell-based; conditions: Mueller-Hinton Broth pH 7.2 - 7.5
From the text: as §1, §2

[4] = test system: Streptococcus sp. 30; experiment: In Vitro Antibacterial Activity (Table V); assay type: cell-based; conditions: Mueller-Hinton Broth pH 7.2 - 7.5
From the text: as §1, §2

[5] = test system: Streptococcus sp. 6589; experiment: In Vitro Antibacterial Activity (Table V); assay type: cell-based; conditions: Mueller-Hinton Broth pH 7.2 - 7.5
From the text: as §1, §2

[6] = test system: Eschericia coli Sc.; experiment: In vivo protective activity in infected mice; design: species or system Carworth Farms CF-1 mice; conditions: S.C., dosed 1 hour after i.p. lethal infection, survival at 48 hours
Procedure: (§3) In Table VI is set forth in vivo antibacterial data obtained with Antibiotic G-418. The host animals used to obtain the data were Carworth Farms CF-1 mice weighing about 18-20 g. In vivo protection (PD50) is determined by injecting the mice (in groups of seven) intraperitoneally with a lethal dose of pathogenic bacteria. The mice are dosed with Antibiotic G-418 1 hour later. The non-protected controls die in 18-24 hours whereas the survivors are alive 48 hours after infection when the test is terminated. The data is analyzed by standard probit procedures to determine PD50 values with 95% confidence limits.

[7] = test system: Pseudomonas aeruginosa No. 1; experiment: In vivo protective activity in infected mice; design: species or system Carworth Farms CF-1 mice; conditions: S.C., dosed 1 hour after i.p. lethal infection, survival at 48 hours
Procedure: as §3

[8] = test system: Staphylococcus aureus Gray; experiment: In vivo protective activity in infected mice; design: species or system Carworth Farms CF-1 mice; conditions: dosed 1 hour after i.p. lethal infection, survival at 48 hours
Procedure: as §3

[9] = test system: Staphylococcus aureus St. M No. 1; experiment: In vivo protective activity in infected mice; design: species or system Carworth Farms CF-1 mice; conditions: S.C., dosed 1 hour after i.p. lethal infection, survival at 48 hours
Procedure: as §3

[10] = Acute Toxicity; design: species or system Carworth Farms CF-1 mice; conditions: mouse, in vivo, iv, I.V.
[11] = test system: E. Histolytica; experiment: Oral activity against experimental cecal E. Histolytica infections in rats; assay type: in vivo, male Royal Hart rats; conditions: for A.D.I. (average degree of infection): scale 0 to 4, controls averaged 2.2
From the text: Table VII and Table VIII set forth in vivo test results which illustrate the antiprotozoal activity of Antibiotic G-418. The host for the tests were recently weaned male Royal Hart rats (3-4 weeks old) weighing about 50-70 g. The test procedure is a modification of one described by R. J. Schnitzer on pages 355-443 in Experimental Chemotherapy, Vol. 1, Academic Press, New York (1963).
*A.D.I. -- defined as the average degree of infection based upon gross
observations of pathological changes in the cecum and microscopic
observations of the number of amoebae found. These observations are
recorded on a scale of from zero to four, zero representing a
substantially normal cecum. Untreated but infected controls range from
about two to four. In the data set forth the controls averaged 2.2.

CN[C@@H]1[C@@H](O)[C@@H](O[C@@H]2[C@@H](O)[C@H](O[C@H]3O[C@H]([C@@H](C)O)[C@@H](O)[C@H](O)[C@H]3N)[C@@H](N)C[C@H]2N)OC[C@]1(C)O [Antibiotic G-418]
MIC [1]: 7.5 µg/mL (≈ 15.1 µM) | MIC [2]: 7.5 µg/mL (≈ 15.1 µM) | MIC [3]: 7.5 µg/mL (≈ 15.1 µM) | MIC [4]: 7.5 µg/mL (≈ 15.1 µM) | MIC [5]: 7.5 µg/mL (≈ 15.1 µM) | PD50 [6]: 1.5 mg/kg | PD50 [7]: 5.0 mg/kg | PD50 ([8]; Oral): 40 mg/kg | PD50 ([8]; S.C.): 2.5 mg/kg | PD50 [9]: 3.0 mg/kg | LD50 [10]: 140 mg/kg | Parasitological Cure Negative/Total ([11]; oral 3.5 mg/kg/day, 3 days): 0/7 | A.D.I. (average degree of infection) ([11]; oral 3.5 mg/kg/day, 3 days): 1.7 | Parasitological Cure Negative/Total ([11]; oral 3.5 mg/kg/day, 6 days): 5/6 | A.D.I. (average degree of infection) ([11]; oral 3.5 mg/kg/day, 6 days): 0.2 | Parasitological Cure Negative/Total ([11]; oral 6.5 mg/kg/day, 1 day): 2/5 | A.D.I. (average degree of infection) ([11]; oral 6.5 mg/kg/day, 1 day): 1.0 | Parasitological Cure Negative/Total ([11]; oral 6.5 mg/kg/day, 3 days): 4/5 | A.D.I. (average degree of infection) ([11]; oral 6.5 mg/kg/day, 3 days): 0.4 | Parasitological Cure Negative/Total ([11]; oral 6.5 mg/kg/day, 6 days): 4/4 | A.D.I. (average degree of infection) ([11]; oral 6.5 mg/kg/day, 6 days): 0 | Parasitological Cure Negative/Total ([11]; oral 10 mg/kg/day, 1 day): 4/7 | A.D.I. (average degree of infection) ([11]; oral 10 mg/kg/day, 1 day): 0.7 | Parasitological Cure Negative/Total ([11]; oral 10 mg/kg/day, 3 days): 7/7 | A.D.I. (average degree of infection) ([11]; oral 10 mg/kg/day, 3 days): 0 | Parasitological Cure Negative/Total ([11]; oral 12.5 mg/kg/day, 6 days): 24/24 | A.D.I. (average degree of infection) ([11]; oral 12.5 mg/kg/day, 6 days): 0 | Parasitological Cure Negative/Total ([11]; oral 25 mg/kg/day, 6 days): 19/19 | A.D.I. (average degree of infection) ([11]; oral 25 mg/kg/day, 6 days): 0
